Measurements published in patent US12227479B2, “Dihydropyridines for the treatment of cognitive impairment or traumatic brain injury” (Icahn School of Medicine at Mount Sinai, priority 2017, dated 2025).
Values joined by “and” are separate entries in the source; they are usually repeats but may differ in a detail not shown here. Equal entries are not always repeated. “Also recorded” adds a separate entry of the source. Where two headings read alike, the source gives them in different places.

Key:
synj1 5′-promoter region = assay: synj1 5′-promoter luciferase assay (GLuc/SEAP dual reporter) in ApoE4 cortical neurons; type: cell-based; conditions: for inhibition of synj1 transcription activities: luciferase assay; for IC50: Cortical neurone, ApoE4 cortical neurons, 48 hours treatment, read-out: IC50 (synj1 transcriptional activity, luciferase assay)
Method: The in vitro luciferase assay uses a dual reporter system of Gaussia luciferase (GLuc) and secreted alkaline phosphatase (SEAP) tagged synj1 5′-promoter region. […] (FIG. 2). DMSO-treated conditions were used as controls and results were presented as percentage of the control (±SEM). One-way ANOVA was performed followed by post-hoc multiple comparison tests to determine the significance of differences between drug-treated vs DMSO control. *p<0.05; N=5-17/condition.

synj1 [1] = assay: Western blot of synj1 protein levels in wt cortical neurons; type: cell-based
Method: Results were determined by measuring the synj1 protein levels as a percentage of the control (±SEM). One-way ANOVA was performed followed by post-hoc multiple comparison tests to determine the significance of differences between drug-treated vs DMSO control. **p<0.01; N=4-17/condition. […] DMSO-treated conditions were used as controls and results were presented as percentage of the control (±SEM). […] FIGS. 3A, B and C). […] FIGS. 3A, B and C). […] D) In vitro calcium channel inhibition assays. Results were presented as percentage of inhibition (±SEM). […] One-way ANOVA was performed followed by post-hoc multiple comparison tests to determine the significance of differences between drug-treated vs DMSO control. *p<0.05, **p<0.01, ***p<0.001; N=3/condition except in A) nimodipine-treated conditions with N=20.

APP/PS1 transgenic mouse = assay: Long-term daily IP treatment of AD transgenic mice: NOR and Y maze behavior tests; type: in vivo; conditions: 2.5 mg/kg/day IP for 6 months, vs vehicle Tg mice
Method: (§1) Data is presented as % of wt control (vehicle-treated) time spent exploring novel objects. N=13-15/group. C) Cortical brain synj1 levels as well as D) PIP2 levels in Tg mice (vehicle-, nimodipine- or Example 9-treated) were compared to vehicle-treated controls (as 100%) in wildtype (wt) mice. N=7-13/group. One-way ANOVA was performed followed by post-hoc multiple comparison tests to determine the significance of differences between pairs of means. *p<0.05, **p<0.01, ***p<0.001, ****p<0.0001.

[2] = Blood pharmacokinetics after IV or PO administration to male CD-1 mice
Aβ40 [3] = assay: Long-term daily oral treatment of ApoE KI mice: brain Aβ40 levels; type: in vivo, mouse; conditions: 3 mg/kg/day oral
Method: (§2) FIG. 8 Long-term in vivo treatment of Example 9 via daily oral administration at 3 mg/kg/day in ApoE KI mice. […] N=5-8/group. Vehicle-treated conditions were used as controls and results were presented as percentage of the control (±SEM). One-way ANOVA was performed followed by post-hoc multiple comparison tests to determine the significance of differences between drug-treated vs DMSO control. *p<0.05, ***p<0.001.

Aβ42 [4] = assay: Long-term daily IP treatment of AD transgenic mice: brain Aβ42 levels; type: in vivo, mouse; conditions: 2.5 mg/kg/day IP for 6 months
Method: (§3) N=5-7/group. […] One-way ANOVA was performed followed by post-hoc multiple comparison tests to determine the significance of differences between drug-treated vs DMSO control. *p<0.05, **p<0.01.

Aβ40 [5] = assay: ELISA of Aβ40 levels in wt cortical neuronal culture; type: cell-based; conditions: wt cortical neurons
Method: (§4) DMSO-treated conditions were used as controls and results were presented as percentage of the control (±SEM). […] FIGS. 3A, B and C). […] FIGS. 3A, B and C). […] D) In vitro calcium channel inhibition assays. Results were presented as percentage of inhibition (±SEM). […] One-way ANOVA was performed followed by post-hoc multiple comparison tests to determine the significance of differences between drug-treated vs DMSO control. *p<0.05, **p<0.01, ***p<0.001; N=3/condition except in A) nimodipine-treated conditions with N=20.

synj1 [6] = assay: Long-term daily IP treatment of AD transgenic mice: cortical brain synj1 levels; type: in vivo; conditions: APP/PS1 transgenic mouse, 2.5 mg/kg/day IP for 6 months, compared to Tg vehicle controls
Method: as §1

wt cortical neurons = assay: Observed toxicity in wt cortical neuron cultures; type: cell-based; conditions: 10 μM
Aβ40 [7] = assay: Long-term daily IP treatment of AD transgenic mice: brain Aβ40 levels; type: in vivo, mouse; conditions: 2.5 mg/kg/day IP for 6 months
Method: as §3

[8] = test system: Ca2+- L type calcium channel (dihydropyridine site); assay: Calcium channel activity, Cerep radioligand displacement (dihydropyridine site, antagonist); type: binding
Method: [table] […] DMSO-treated conditions were used as controls and results were presented as percentage of the control (±SEM). […] FIGS. 3A, B and C). […] FIGS. 3A, B and C). […] D) In vitro calcium channel inhibition assays. Results were presented as percentage of inhibition (±SEM). […] One-way ANOVA was performed followed by post-hoc multiple comparison tests to determine the significance of differences between drug-treated vs DMSO control. *p<0.05, **p<0.01, ***p<0.001; N=3/condition except in A) nimodipine-treated conditions with N=20.

ApoE4 mice = assay: Long-term daily oral treatment of ApoE KI mice: NOR test; type: in vivo, mouse; conditions: 3 mg/kg/day oral for 6 months, vs vehicle-treated ApoE4 mice
Method: FIG. 7 Long-term in vivo treatment of Example 9 via daily oral administration at 3 mg/kg/day in ApoE KI mice. […] Data is presented as a percentage of ApoE3 control (vehicle-treated) time spent exploring novel objects. N=12-13/group. Cortical brain B) synj1 levels as well as C) pTau levels in ApoE4 mice (vehicle- or Example 9-treated) were compared to vehicle-treated controls (as 100%) in ApoE3 mice. N=6-9/group. One-way ANOVA was performed followed by post-hoc multiple comparison tests to determine the significance of differences between pairs of means. *p<0.05, **p<0.01.

[9] = Brain and blood exposure after PO administration to male CD-1 mice; type: in vivo, mouse; conditions: for concentration at 1 h / concentration at 3 h / Kp at 1 h / Kp at 3 h: mouse, PO 30 mg/kg, male CD-1 mice; for Kp at 1 h / Kp at 3 h: brain/blood, read-out: Brain/Blood ratio
Aβ42 [10] = assay: Long-term daily oral treatment of ApoE KI mice: brain Aβ42 levels; type: in vivo, mouse; conditions: 3 mg/kg/day oral
Method: as §2

in vivo = conditions: male, CD-1, mouse
Aβ42 [11] = assay: ELISA of Aβ42 levels in wt cortical neuronal culture; type: cell-based; conditions: 10 μM, wt cortical neurons
Method: as §4

[12] = male, CD-1, mouse, blood, iv, 1 mg/kg
[13] = male, CD-1, mouse, blood, po, 30 mg/kg
[14] = APP/PS1 transgenic mouse neocortex, vs Tg vehicle

SMILES: COCCOC(=O)C1=C(C)NC(C)=C(C(=O)OC(C)C)C1c1ccc(C(C)(C)C)cc1 (centres unmarked) [Example 9, 3-isopropyl 5-(2-methoxyethyl) 4-(4-(tert-butyl)phenyl)-2,6-dimethyl-1,4-dihydropyridine-3,5-dicarboxylate]
- inhibition of synj1 transcription activities (synj1 5′-promoter region; 3 μM): 44.4% inhibition.
- IC50 (synj1 5′-promoter region): 3.33 µM
- reduction of synj1 protein levels (synj1 [1]; 5 μM): 62.4% and 62.3%
- cognitive function in NOR and Y-maze tests (in words) (APP/PS1 transgenic mouse): cognitive improvements
- oral bioavailability (in words) ([2]; compared with nimodipine): better than nimodipine
- AUC [2, 12]: 189 ng·h/mL
- Cmax [2, 12]: 228 ng/mL
- Vd [2, 12]: 8.2 L/kg
- clearance [2, 12]: 85 mL/min/kg
- half-life [2, 12]: 1.68 h
- bioavailability ([2]; male, CD-1, mouse, blood, oral, 30 mg/kg): 73%
- AUC [2, 13]: 4120 ng·h/mL
- Cmax [2, 13]: 1010 ng/mL
- half-life [2, 13]: 0.84 h
- levels of soluble Aβ40 in ApoE4 animal brains (in words) (Aβ40 [3]): reduction
- levels of insoluble Aβ42 in Tg animal brains (in words) (Aβ42 [4]; AD transgenic mice): trend of reduction
- levels of soluble Aβ42 in Tg animal brains (in words) (Aβ42 [4]; AD transgenic mice): Reduction
- decrease in insoluble Aβ42 levels (Aβ42 [4]; [14]): 27.4%
- decrease in soluble Aβ42 levels (Aβ42 [4]; [14]): insoluble Aβ42 levels, a 19.3% decrease in soluble Aβ42 levels,
- reduction of Aβ40 levels (Aβ40 [5]; 5 μM): 82.6%
- reduction of synj1 protein levels in brain neocortical regions (synj1 [6]): 99.4%
- toxicity in cortical neuron culture (wt cortical neurons): observed toxicities
- levels of insoluble Aβ40 in Tg animal brains (in words) (Aβ40 [7]; AD transgenic mice): Reduction
- decrease in insoluble Aβ40 levels (Aβ40 [7]; [14]): 23.7%
- decrease in soluble Aβ40 levels (Aβ40 [7]; [14]): 12%
- calcium channel inhibition ([8]; 1 nM): no calcium channel
- calcium channel inhibition ([8]; 0.1 μM): 81.3%
- calcium channel inhibition compared to nimodipine (in words) ([8]; versus nimodipine): attenuated calcium channel blockade effects; also recorded: Example 9 has attenuated calcium channel inhibition versus
- cognitive function in NOR test (in words) (ApoE4 mice): cognitive improvements
- CNS penetrability (in words) ([9]; compared with nimodipine): better than nimodipine
- concentration at 1 h ([9]; blood, read-out: Blood conc.): 518 ng/mL
- concentration at 3 h ([9]; blood, read-out: Blood conc.): 607 ng/mL
- Kp at 1 h [9]: 1.2
- Kp at 3 h [9]: 0.7
- concentration at 1 h ([9]; brain, read-out: Brain conc.): 604 ng/mL
- concentration at 3 h ([9]; brain, read-out: Brain conc.): 421 ng/mL
- levels of insoluble Aβ42 in ApoE4 animal brains (in words) (Aβ42 [10]): trend of reduction
- levels of soluble Aβ42 in ApoE4 animal brains (in words) (Aβ42 [10]): reduction

SMILES: COCCOC(=O)C1=C(C)NC(C)=C(C(=O)OC(C)C)C1c1cccc([N+](=O)[O-])c1 (racemic) [nimodipine]
- inhibition of synj1 transcription activities (synj1 5′-promoter region; 10 μM): Nimodipine at 10 μM achieved a 43.0% inhibition of synj1
- IC50 (synj1 5′-promoter region): 3.99 µM
- reduction of synj1 protein levels (synj1 [1]; 10 μM): 26.6%
- bioavailability (in vivo): 7%
- AUC (in vivo; iv, 1 mg/kg): 187 ng·h/mL
- Cmax (in vivo; iv, 1 mg/kg): 341 ng/mL
- Vd (in vivo; iv, 1 mg/kg): 3.29 L/kg
- clearance (in vivo; iv, 1 mg/kg): 88.8 mL/min/kg
- half-life (in vivo; iv, 1 mg/kg): 0.58 h
- AUC (in vivo; po, 30 mg/kg): 384 ng·h/mL
- Cmax (in vivo; po, 30 mg/kg): 114 ng/mL
- half-life (in vivo; po, 30 mg/kg): 7.27 h
- reduction of Aβ40 levels (Aβ40 [5]; 10 μM): 47.0%
- reduction of Aβ40 levels (Aβ40 [5]; 10 μM, listed as Nimodipine): synj1 protein levels, a 47% reduction of Aβ40 levels and a
- reduction of synj1 protein levels in brain neocortical regions (synj1 [6]): 75.8%
- decrease in soluble Aβ40 levels (Aβ40 [7]; [14]): 24.7%
- reduction of Aβ42 levels (Aβ42 [11]): 12.1%
- reduction of Aβ42 levels (Aβ42 [11]; listed as Nimodipine): 12.1% reduction of Aβ42 levels. Example 9 at 5 μM exhibited a
- concentration at 1 h ([9]; blood, read-out: Blood conc.): 70 ng/mL
- concentration at 3 h ([9]; blood, read-out: Blood conc.): 62 ng/mL
- Kp at 1 h [9]: 1.9
- Kp at 3 h [9]: 1
- concentration at 1 h ([9]; brain, read-out: Brain conc.): 136 ng/mL
- concentration at 3 h ([9]; brain, read-out: Brain conc.): 62 ng/mL

SMILES: COCCOC(=O)C1=C(C)NC(C)=C(C(=O)OC(C)C)C1c1ccc(OC(F)(F)F)cc1 (centres unmarked) [Example 7]
- toxicity in cortical neuron culture (wt cortical neurons): observed toxicities

SMILES: COCCOC(=O)C1=C(C)NC(C)=C(C(=O)OC(C)C)C1c1ccc(C(F)(F)F)cc1 (centres unmarked) [Example 6, 3-isopropyl 5-(2-methoxyethyl) 2,6-dimethyl-4-(4-(trifluoromethyl)phenyl)-1,4-dihydropyridine-3,5-dicarboxylate]
- IC50 (synj1 5′-promoter region): 1.89 µM
- toxicity in cortical neuron culture (wt cortical neurons): observed toxicities
